Results from patent US12428423B2, “1H-imidazo[4,5-h]quinazoline compound as protein kinase inhibitor” (SHENGKE PHARMACEUTICALS (JIANGSU) LTD., priority 2017, dated 2025).
Counter-ions that a name gives are not always drawn.

How the values were obtained:
CDK6/cyclin D1 = CDK6/cyclin D1 (Homo sapiens (Human), UniProt Q00534); experiment: Biochemical kinase inhibitory assay, CDK6/cyclin D1; conditions: in the presence of 10 μM ATP
Method: Potency determination in the biochemical kinase inhibitory assay. Kinase activity assay and IC50 determination. […] The kinase reaction was initiated by the addition of 1 μg (1.5 μM) of recombinant retinoblastoma protein, 5 μM ATP and 10μ Ci γ-32P-ATP. The reaction was incubated at 30° C. for 20 minutes, and the reaction was stopped by the addition of 2× Laemmli sample buffer, heated at 95° C. for three minutes, and dissolved in 12% acrylamide SDS-PAGE for autoradiography. The corresponding phosphorylated substrate protein bands were quantified using a densitometer (Bio-Rad). […] The compounds disclosed herein were tested in a similar manner for their inhibitory activities against CDK6/cyclin D1, CDK2/cyclin A, CDK5/cyclin P25, CDK9/cyclin Ti, CDK7/cyclin H and CDK19/cyclin C. […] The reaction took place in the presence of 10 μM ATP.

CDK4/cyclin D1 = CDK4/cyclin D1 (Homo sapiens (Human), UniProt P11802); experiment: Biochemical kinase inhibitory assay, CDK4/cyclin D1; conditions: recombinant CDK4/cyclin D1; in the presence of 10 μM ATP
Method: Potency determination in the biochemical kinase inhibitory assay. Kinase activity assay and IC50 determination. […] The kinase reaction was initiated by the addition of 1 μg (1.5 μM) of recombinant retinoblastoma protein, 5 μM ATP and 10μ Ci γ-32P-ATP. The reaction was incubated at 30° C. for 20 minutes, and the reaction was stopped by the addition of 2× Laemmli sample buffer, heated at 95° C. for three minutes, and dissolved in 12% acrylamide SDS-PAGE for autoradiography. The corresponding phosphorylated substrate protein bands were quantified using a densitometer (Bio-Rad). […] The reaction took place in the presence of 10 μM ATP.

Chain of CDK6/cyclin D1 (Q00534 whole entry): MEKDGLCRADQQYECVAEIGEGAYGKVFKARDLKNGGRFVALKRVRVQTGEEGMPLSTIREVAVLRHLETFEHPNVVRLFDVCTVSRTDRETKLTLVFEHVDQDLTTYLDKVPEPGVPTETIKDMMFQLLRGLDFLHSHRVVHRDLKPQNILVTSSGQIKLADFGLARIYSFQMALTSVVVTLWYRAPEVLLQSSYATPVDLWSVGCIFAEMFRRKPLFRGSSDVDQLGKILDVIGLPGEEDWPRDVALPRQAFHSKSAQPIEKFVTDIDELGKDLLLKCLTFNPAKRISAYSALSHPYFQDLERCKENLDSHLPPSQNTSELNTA
Chain of CDK6/cyclin D1 (P24385 whole entry partner): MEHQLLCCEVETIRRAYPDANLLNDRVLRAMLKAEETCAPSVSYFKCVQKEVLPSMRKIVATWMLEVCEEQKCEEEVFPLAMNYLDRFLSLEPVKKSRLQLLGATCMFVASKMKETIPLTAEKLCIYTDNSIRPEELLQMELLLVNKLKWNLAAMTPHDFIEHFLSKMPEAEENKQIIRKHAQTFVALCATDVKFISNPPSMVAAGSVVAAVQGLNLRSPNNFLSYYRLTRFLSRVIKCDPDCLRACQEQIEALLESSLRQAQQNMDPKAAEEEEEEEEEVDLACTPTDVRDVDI
Chain of CDK4/cyclin D1 (P11802 whole entry): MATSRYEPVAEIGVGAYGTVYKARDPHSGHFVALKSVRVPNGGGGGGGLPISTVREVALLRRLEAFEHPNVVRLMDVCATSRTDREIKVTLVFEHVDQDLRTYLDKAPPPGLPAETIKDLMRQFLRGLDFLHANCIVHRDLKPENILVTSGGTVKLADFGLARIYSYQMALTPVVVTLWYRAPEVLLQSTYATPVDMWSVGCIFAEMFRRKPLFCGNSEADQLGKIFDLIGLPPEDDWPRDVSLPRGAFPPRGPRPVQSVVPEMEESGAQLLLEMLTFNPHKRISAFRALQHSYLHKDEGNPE
Chain of CDK4/cyclin D1 (P24385 whole entry partner): as the sequence (P24385 whole entry partner) above

IC50 (CDK6/cyclin D1) [nM] | IC50 (CDK4/cyclin D1) [nM] | Compound
2 to 10 | 2 to 10 | CC(C)n1cnc2ccc3cnc(Nc4ccc(N5CCN(C)CC5)cn4)nc3c21 [Compound I-2, 1-isopropyl-N-(5-(4-methylpiperazin-1-yl)pyridin-2-yl)-1H-imidazo[4,5-h]quinazolin-8-amine]
2 to 10 | 2 to 10 | Cc1nc(Nc2ncc3ccc4ncn(C(C)C)c4c3n2)ccc1N1CCN(C)CC1 [Compound I-4]
< 2 | < 2 | CCN1CCN(c2ccc(Nc3ncc4ccc5ncn(C(C)C)c5c4n3)nc2)CC1 [Compound I-5]
2 to 10 | 2 to 10 | CCN1CCN(c2cnc(Nc3ncc4ccc5ncn(C(C)C)c5c4n3)cc2C)CC1 [Compound I-6]
2 to 10 | 2 to 10 | CCN1CCN(c2ccc(Nc3ncc4ccc5ncn(C(C)C)c5c4n3)nc2C)CC1 [Compound I-7]
< 2 | < 2 | Cc1cc(Nc2ncc3ccc4ncn(C(C)C)c4c3n2)ncc1N1CCNCC1 [Compound I-8]
2 to 10 | 2 to 10 | CC(C)n1cnc2ccc3cnc(Nc4ccc(N5CCN[C@@H](C)C5)cn4)nc3c21 [Compound I-10]
2 to 10 | 2 to 10 | CC(C)n1cnc2ccc3cnc(Nc4ccc(N5CCNC(C)(C)C5)cn4)nc3c21 [Compound I-11]
10 to 50 | 10 to 50 | CC(C)n1cnc2ccc3cnc(Nc4cc(F)c(N5CCNCC5)cn4)nc3c21 [Compound I-13]
10 to 50 | 10 to 50 | CC(C)n1cnc2ccc3cnc(Nc4ccc(N5CCCNCC5)cn4)nc3c21 [Compound I-14]
10 to 50 | 10 to 50 | CC(C)n1cnc2ccc3cnc(Nc4ccc(N5CCCCC5)cn4)nc3c21 [Compound I-16]
10 to 50 | 10 to 50 | CC(C)n1cnc2ccc3cnc(Nc4ccc(N5CCC(CCCO)CC5)cn4)nc3c21 [Compound I-18]
10 to 50 | 10 to 50 | CC(C)n1cnc2ccc3cnc(Nc4ccc(N5CCC(N(C)C)CC5)cn4)nc3c21 [Compound I-19]
10 to 50 | 10 to 50 | CC(C)n1cnc2ccc3cnc(Nc4ccc(N5CCC(N(C)C)CC5)c(F)n4)nc3c21 [Compound I-20]
2 to 10 | 2 to 10 | Cc1nc(Nc2ncc3ccc4ncn(C(C)C)c4c3n2)ccc1N1CCOCC1 [Compound I-25]
2 to 10 | 2 to 10 | CC1CN(c2ccc(Nc3ncc4ccc5ncn(C(C)C)c5c4n3)nc2)CCO1 (stereo not drawn) [Compound I-26]

IC50 (CDK6/cyclin D1) [nM] | IC50 (CDK4/cyclin D1) [nM] | Compound
10 to 50 | 10 to 50 | CC(C)n1cnc2ccc3cnc(Nc4ccc(N5CCC6(CCNCC6)C5)cn4)nc3c21 [Compound I-28]
10 to 50 | 10 to 50 | CC(C)n1cnc2ccc3cnc(Nc4ccc(N5CCC6(CNC6)C5)cn4)nc3c21 [Compound I-29]
10 to 50 | 10 to 50 | CC(C)n1cnc2ccc3cnc(Nc4ccc(N5CCC6(CC5)CNC6)cn4)nc3c21 [Compound I-31]
10 to 50 | 10 to 50 | CC(C)n1cnc2ccc3cnc(Nc4ccc(N5CC6(CCNCC6)C5)cn4)nc3c21 [Compound I-32]
10 to 50 | 10 to 50 | CC(C)n1cnc2ccc3cnc(Nc4ccc(N5CCC6(CCC(=O)N6)CC5)cn4)nc3c21 [Compound I-33]
50 to 100 | 50 to 100 | COc1cc(OC2CCN(C)CC2)ccc1Nc1ncc2ccc3ncn(C(C)C)c3c2n1 [Compound I-37]
50 to 100 | 50 to 100 | COc1cc(C(=O)NC2CCN(C)CC2)ccc1Nc1ncc2ccc3ncn(C(C)C)c3c2n1 [Compound I-40]
50 to 100 | 50 to 100 | CC(C)N1CCN(c2ccc(Nc3ncc4ccc5ncn(C(C)C)c5c4n3)nn2)CC1 [Compound I-41]
10 to 50 | 10 to 50 | CCn1cnc2ccc3cnc(Nc4ccc(N5CCOCC5)cn4)nc3c21 [Compound I-45]
10 to 50 | 10 to 50 | c1cc(Nc2ncc3ccc4ncn(C5CC5)c4c3n2)ncc1N1CCOCC1 [Compound I-49]
10 to 50 | 10 to 50 | Cc1cc(Nc2ncc3ccc4ncn(C5CC5)c4c3n2)ncc1N1CCOCC1 [Compound I-50]
10 to 50 | 10 to 50 | c1cc(Nc2ncc3ccc4ncn(C5CCC5)c4c3n2)ncc1N1CCOCC1 [Compound I-55]
10 to 50 | 10 to 50 | Cc1cc(Nc2ncc3ccc4ncn(C5CCC5)c4c3n2)ncc1N1CCOCC1 [Compound I-56]
2 to 10 | 2 to 10 | Cc1nc(Nc2ncc3ccc4ncn(C5CCCC5)c4c3n2)ccc1N1CCNCC1 [Compound I-59]
2 to 10 | 2 to 10 | c1cc(Nc2ncc3ccc4ncn(C5CCCC5)c4c3n2)ncc1N1CCOCC1 [Compound I-60]

The remaining lines, values behind:

Compound | IC50 (CDK6/cyclin D1) [nM] | IC50 (CDK4/cyclin D1) [nM]
CC(C)n1cnc2ccc3cnc(Nc4ccc(N5CCNCC5)cn4)nc3c21 [Compound I-1, 1-Isopropyl-N-(5-(piperazin-1-yl)pyridin-2-yl)-1H-imidazo[4,5-h]quinazolin-8-amine hydrochloride] | < 2 | < 2
Cc1cc(Nc2ncc3ccc4ncn(C(C)C)c4c3n2)ncc1N1CCN(C)CC1 [Compound I-3] | 2 to 10 | 2 to 10
Cc1nc(Nc2ncc3ccc4ncn(C(C)C)c4c3n2)ccc1N1CCNCC1 [Compound I-9] | < 2 | < 2
CC(C)n1cnc2ccc3cnc(Nc4ccc(N5C[C@@H](C)N[C@@H](C)C5)cn4)nc3c21 [Compound I-12] | 2 to 10 | 2 to 10
CC(C)n1cnc2ccc3cnc(Nc4ccc(N5CCN(CCO)CC5)cn4)nc3c21 [Compound I-15] | 10 to 50 | 10 to 50
CC(C)n1cnc2ccc3cnc(Nc4ccc(N5CCC(O)CC5)cn4)nc3c21 [Compound I-17] | 10 to 50 | 10 to 50
CC(C)n1cnc2ccc3cnc(Nc4ccc(N5CCC(N)CC5)cn4)nc3c21 [Compound I-21] | 10 to 50 | 10 to 50
CC(C)n1cnc2ccc3cnc(Nc4ccc(N5CCC(N)C5)cn4)nc3c21 (stereo not drawn) [Compound I-22] | 10 to 50 | 10 to 50
CC(C)n1cnc2ccc3cnc(Nc4ccc(N5CCOCC5)cn4)nc3c21 [Compound I-23] | < 2 | < 2
Cc1cc(Nc2ncc3ccc4ncn(C(C)C)c4c3n2)ncc1N1CCOCC1 [Compound I-24] | 2 to 10 | 2 to 10
CC(C)n1cnc2ccc3cnc(Nc4ccc(N5C[C@@H](C)O[C@@H](C)C5)cn4)nc3c21 [Compound I-27] | 2 to 10 | 2 to 10
CC(C)n1cnc2ccc3cnc(Nc4ccc(N5CC6(CNC6)C5)cn4)nc3c21 [Compound I-30] | 10 to 50 | 10 to 50
CC(C)n1cnc2ccc3cnc(Nc4ccc(N5CCN(CCO)CC5)cc4)nc3c21 [Compound I-34] | 10 to 50 | 10 to 50
CC(C)n1cnc2ccc3cnc(Nc4ccc(N5CCNCC5)cc4F)nc3c21 [Compound I-35] | 10 to 50 | 10 to 50
COc1cc(OCCN(C)C)ccc1Nc1ncc2ccc3ncn(C(C)C)c3c2n1 [Compound I-36] | 50 to 100 | 50 to 100
CC(C)n1cnc2ccc3cnc(Nc4ccc(N5CCC(CCCO)CC5)cc4)nc3c21 [Compound I-38] | 10 to 50 | 10 to 50
COc1ccc2cc(Nc3ncc4ccc5ncn(C(C)C)c5c4n3)ccc2n1 [Compound I-39] | 50 to 100 | 50 to 100
CCn1cnc2ccc3cnc(Nc4ccc(N5CCNCC5)cn4)nc3c21 [Compound I-42] | 10 to 50 | 10 to 50
CCn1cnc2ccc3cnc(Nc4ccc(N5CCN(C)CC5)cn4)nc3c21 [Compound I-43] | 10 to 50 | 10 to 50
CCn1cnc2ccc3cnc(Nc4ccc(N5C[C@@H](C)O[C@@H](C)C5)cn4)nc3c21 [Compound I-44] | 10 to 50 | 10 to 50
CCn1cnc2ccc3cnc(Nc4ccc(N5CCOC(C)C5)cn4)nc3c21 (stereo not drawn) [Compound I-46] | 10 to 50 | 10 to 50
c1cc(Nc2ncc3ccc4ncn(C5CC5)c4c3n2)ncc1N1CCNCC1 [Compound I-47] | 2 to 10 | 2 to 10
Cc1cc(Nc2ncc3ccc4ncn(C5CC5)c4c3n2)ncc1N1CCNCC1 [Compound I-48] | 10 to 50 | 10 to 50
Cc1nc(Nc2ncc3ccc4ncn(C5CC5)c4c3n2)ccc1N1CCOCC1 [Compound I-51] | 10 to 50 | 10 to 50
c1cc(Nc2ncc3ccc4ncn(C5CCC5)c4c3n2)ncc1N1CCNCC1 [Compound I-52] | 10 to 50 | 10 to 50
Cc1cc(Nc2ncc3ccc4ncn(C5CCC5)c4c3n2)ncc1N1CCNCC1 [Compound I-53] | 10 to 50 | 10 to 50
Cc1nc(Nc2ncc3ccc4ncn(C5CCC5)c4c3n2)ccc1N1CCNCC1 [Compound I-54] | 10 to 50 | 10 to 50
c1cc(Nc2ncc3ccc4ncn(C5CCCC5)c4c3n2)ncc1N1CCNCC1 [Compound I-57] | < 2 | < 2
Cc1cc(Nc2ncc3ccc4ncn(C5CCCC5)c4c3n2)ncc1N1CCNCC1 [Compound I-58] | 2 to 10 | 2 to 10
